Measurements published in ChEMBL document CHEMBL1127900, “Preparative chiral HPLC separation of all possible stereoisomers of LY191704 and LY266111 and their in vitro inhibition of human types 1 and 2 steroid 5-reductases” (Bioorg Med Chem Lett, 1994).
pKi: −log10 of the molar value.

Key:
[1] = target: T1, 3-oxo-5-alpha-steroid 4-dehydrogenase 1 (Homo sapiens, UniProt P18405); test: In vitro inhibition of recombinant human Steroid 5-alpha-reductase type I; conditions: read-out: Ki app
T1 sequence (P18405 whole entry): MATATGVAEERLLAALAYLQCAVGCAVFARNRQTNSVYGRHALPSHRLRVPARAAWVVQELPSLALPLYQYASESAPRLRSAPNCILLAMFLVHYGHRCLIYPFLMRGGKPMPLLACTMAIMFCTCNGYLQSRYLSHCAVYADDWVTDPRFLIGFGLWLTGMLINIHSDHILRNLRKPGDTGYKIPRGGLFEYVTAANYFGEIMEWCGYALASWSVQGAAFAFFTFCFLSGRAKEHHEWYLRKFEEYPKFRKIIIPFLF

[2] = target: T2, 3-oxo-5-alpha-steroid 4-dehydrogenase 2 (Homo sapiens, UniProt P31213); test: In vitro inhibition of recombinant human Steroid 5-alpha-reductase type 2; conditions: read-out: Ki app
T2 sequence (P31213 whole entry): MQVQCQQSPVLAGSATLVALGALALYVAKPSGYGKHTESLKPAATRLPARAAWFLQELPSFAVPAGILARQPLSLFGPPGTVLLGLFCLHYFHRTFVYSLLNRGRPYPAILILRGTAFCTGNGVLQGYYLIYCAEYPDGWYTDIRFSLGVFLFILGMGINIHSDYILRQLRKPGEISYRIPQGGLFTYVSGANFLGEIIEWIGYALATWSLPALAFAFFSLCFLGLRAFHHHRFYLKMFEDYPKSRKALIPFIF

[3] = target: T2, 3-oxo-5-alpha-steroid 4-dehydrogenase 2; test: In vitro inhibition of recombinant human Steroid 5-alpha-reductase type 2; No inhibition

pKi [1]	pKi [2]	Ki app [3]	Structure (SMILES)
7.77	6.34		CN1C(=O)CCC2=C1CCc1cc(Cl)ccc12
6.74		Not Active	CN1C(=O)CC[C@@]2(C)C1=CCc1cc(Cl)ccc12 (racemic)
8.05	< 6.00		CN1C(=O)CC[C@]2(C)c3ccc(Cl)cc3CC[C@@H]12 (stereo in doubt; (+))
8.22	6.00		CN1C(=O)CC[C@@H]2c3ccc(Cl)cc3CC[C@H]21 (stereo in doubt; (+)) [BEXLOSTERIDE]
7.82	6.00		CN1C(=O)CC[C@@H]2c3ccc(Cl)cc3CC[C@@H]21 (stereo in doubt; (+)-3)
5.40	< 5.60		CN1C(=O)CC[C@]2(C)c3ccc(Cl)cc3CC[C@H]12 (stereo in doubt; (+)-4)
8.00	< 6.00		CN1C(=O)CC[C@]2(C)c3ccc(Cl)cc3CC[C@@H]12 (stereo in doubt; (-))
8.40	5.92		CN1C(=O)CC[C@@H]2c3ccc(Cl)cc3CC[C@H]21 (stereo in doubt; (-)) [BEXLOSTERIDE]
7.82	5.27		CN1C(=O)CC[C@@H]2c3ccc(Cl)cc3CC[C@@H]21 (stereo in doubt; (-)-3)
5.15	< 5.60		CN1C(=O)CC[C@]2(C)c3ccc(Cl)cc3CC[C@H]12 (stereo in doubt; (-)-4)
